ChEMBL document CHEMBL5346860, “Cancer multidrug-resistance reversal by ABCB1 inhibition: A recent update” (Eur J Med Chem, 2022)
Each block holds one compound with its values, some of them ahead of it.

Columns and labels:
[1] = Antiproliferative activity against human Flp-In-293 cells expressing ABCB1 assessed as cell growth inhibition incubated for 72 hrs by SRB assay; format: toxicity, cell-based
[2] = target: T1, ATP-dependent translocase ABCB1 (Homo sapiens, UniProt P08183); assay: Inhibition of ABCB1 in human HEK293 cells; format: cell-based
[3] = tested on: HeLa S3; assay: cells; details: Homo sapiens, HeLa S3, 72 h
Description: Antiproliferative activity against drug-sensitive human HeLaS3 cells assessed as cell growth inhibition incubated for 72 hrs by SRB assay

[4] = cells; details: Homo sapiens, KBVIN, 72 h
Description: Antiproliferative activity against multidrug-resistant human KB-VIN cells assessed as cell growth inhibition incubated for 72 hrs by SRB assay

[5] = Antiproliferative activity against daunorubicin-resistant human EPG85-257 cells incubated for 72 hrs by annexin-V-PI staining based flow cytometry; format: functional, EPG85-257RDB
[6] = cells; details: Homo sapiens, EPP85-181RDB, 72 h
Description: Antiproliferative activity against daunorubicin-resistant human EPP85-181 cells incubated for 72 hrs by annexin-V-PI staining based flow cytometry

[7] = tested on: P388/ADR; assay: Reversal of ABCB1 mediated doxorubicin-resistance in mouse P388/ADR cells assessed as cell growth inhibition incubated for 48 hrs by MTT assay; format: functional, cell-based
[8] = tested on: P388/ADR; assay: Potency index, ratio of verapamil IC50 to compound IC50 for reversal of ABCB1 mediated doxorubicin-resistance in mouse P388/ADR cells assessed as cell growth inhibition incubated for 48 hrs by MTT assay; format: functional
[9] = target: T1, ATP-dependent translocase ABCB1; assay: Inhibition of ABCB1 in human HEK293 cells in the presence of doxorubicin; format: cell-based
[10] = Reversal of drug resistance in paclitaxel-resistant human TOV-21G cells assessed as fold change in paclitaxel IC50 in presence of paclitaxel; format: functional, paclitaxel-resistant human TOV-21G cell
[11] = Reversal of drug resistance in paclitaxel-resistant human OVCAR-3 cells assessed as fold decrease in paclitaxel IC50 in presence of paclitaxel; format: functional, paclitaxel-resistant human OVCAR-3 cell
[12] = target: T1, ATP-dependent translocase ABCB1; assay: Inhibition of ABCB1 in multi-drug resistance human HL-60 cells assessed as increase in daunorubicin accumulation; format: cell-based
[13] = tested on: HL-60; assay: Antiproliferative activity against human HL-60 cells assessed as inhibition of cell survival by MTT assay; format: functional; details: read-out: LC50 (the source's name)
[14] = tested on: U-937; assay: Antiproliferative activity against human U-937 cells assessed as inhibition of cell survival by MTT assay; format: functional; details: read-out: LC50 (the source's name)
[15] = Antiproliferative activity against human HaCaT cells assessed as inhibition of cell survival by MTT assay; format: toxicity, cell-based; details: read-out: LC50 (the source's name)
[16] = Antiproliferative activity against human BJ cells assessed as inhibition of cell survival by MTT assay; format: toxicity, cell-based; details: read-out: LC50 (the source's name)
[17] = tested on: SH-SY5Y; assay: Antiproliferative activity against human SH-SY5Y cells assessed as inhibition of cell survival by MTT assay; format: functional; details: read-out: LC50 (the source's name)
[18] = tested on: HEK293; assay: Antiproliferative activity against human HEK293 cells assessed as inhibition of cell survival by MTT assay; format: functional; details: read-out: LC50 (the source's name)
[19] = tested on: A549/TR; assay: Antiproliferative activity against human A549/Taxol cells overexpressing ABCB1 assessed as cell growth inhibition by MTT assay; format: functional, cell-based
[20] = tested on: A2780/Taxol; assay: Antiproliferative activity against human A2780/Taxol cells overexpressing ABCB1 assessed as cell growth inhibition by MTT assay; format: functional, cell-based
[21] = tested on: A2780/Taxol; assay: Potentiation of paclitaxel induced antiproliferative activity against human A2780/Taxol cells overexpressing ABCB1 assessed as fold reduction in paclitaxel IC50 by MTT assay relative to control; format: functional
[22] = tested on: A549/TR; assay: Potentiation of paclitaxel induced antiproliferative activity against human A549/Taxol cells overexpressing ABCB1 assessed as fold reduction in paclitaxel IC50 by MTT assay relative to control
[23] = tested on: 4T1; assay: Antitumor activity against mouse 4T1 cells implanted in Balb/c mouse assessed as tumor growth inhibition at 4 mg/kg administered once for every two days measured after 15 days by immunohistochemical analysis relative to control; format: functional; details: 4T1, 360 h, time 15 day
[24] = tested on: ADR5000 cell line; assay: Antitumor activity against human CEM/ADR5000 cells assessed as fold increase in doxorubicin accumulation; format: functional

T1 sequence (P08183 whole entry): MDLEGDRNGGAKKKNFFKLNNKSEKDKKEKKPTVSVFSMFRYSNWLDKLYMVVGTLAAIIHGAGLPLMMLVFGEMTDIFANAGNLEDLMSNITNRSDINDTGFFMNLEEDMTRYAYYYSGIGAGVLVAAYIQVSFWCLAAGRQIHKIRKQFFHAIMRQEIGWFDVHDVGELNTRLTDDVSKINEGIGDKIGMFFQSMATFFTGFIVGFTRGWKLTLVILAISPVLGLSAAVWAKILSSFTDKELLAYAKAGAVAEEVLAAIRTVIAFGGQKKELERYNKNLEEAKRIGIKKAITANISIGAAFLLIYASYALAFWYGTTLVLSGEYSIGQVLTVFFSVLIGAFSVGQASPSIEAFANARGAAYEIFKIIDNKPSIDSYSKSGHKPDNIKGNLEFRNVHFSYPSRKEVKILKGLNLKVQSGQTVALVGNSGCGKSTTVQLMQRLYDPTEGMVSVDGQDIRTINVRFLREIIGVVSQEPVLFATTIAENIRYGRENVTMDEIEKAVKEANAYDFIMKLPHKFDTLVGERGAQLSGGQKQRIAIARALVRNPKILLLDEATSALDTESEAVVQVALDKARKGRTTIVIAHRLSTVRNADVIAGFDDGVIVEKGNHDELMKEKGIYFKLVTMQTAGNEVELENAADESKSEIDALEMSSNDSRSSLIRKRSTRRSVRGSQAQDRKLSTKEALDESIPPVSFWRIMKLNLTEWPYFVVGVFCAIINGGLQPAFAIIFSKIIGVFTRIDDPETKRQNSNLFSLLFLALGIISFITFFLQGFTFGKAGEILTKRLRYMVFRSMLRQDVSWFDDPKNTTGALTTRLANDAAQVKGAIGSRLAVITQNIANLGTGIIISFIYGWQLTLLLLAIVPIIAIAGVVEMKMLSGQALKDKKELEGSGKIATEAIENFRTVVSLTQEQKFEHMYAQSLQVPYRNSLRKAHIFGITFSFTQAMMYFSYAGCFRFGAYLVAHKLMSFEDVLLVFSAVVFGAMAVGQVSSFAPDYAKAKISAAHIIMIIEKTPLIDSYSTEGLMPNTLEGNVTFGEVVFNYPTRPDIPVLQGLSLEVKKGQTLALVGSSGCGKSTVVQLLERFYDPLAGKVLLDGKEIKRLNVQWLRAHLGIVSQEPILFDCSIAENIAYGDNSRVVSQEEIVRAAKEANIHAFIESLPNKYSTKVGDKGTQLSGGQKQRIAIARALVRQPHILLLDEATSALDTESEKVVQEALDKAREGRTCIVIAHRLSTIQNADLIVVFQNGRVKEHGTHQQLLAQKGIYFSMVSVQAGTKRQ

SMILES: COc1cccc2c1C(=O)c1c(O)c3c(c(O)c1C2=O)C[C@@](O)(C(=O)CO)C[C@@H]3O[C@H]1C[C@H](N)[C@H](O)[C@H](C)O1 [DOXORUBICIN]
IC50 at 72 h [1]: < 40 µM
IC50 [2]: 504 nM
IC50 [3]: < 40 µM
IC50 [4]: < 40 µM

SMILES: CS(=O)(=O)CCNCc1ccc(-c2ccc3ncnc(Nc4ccc(OCc5cccc(F)c5)c(Cl)c4)c3c2)o1 [LAPATINIB]
fold change (FC) [10]: 20.7
fold change (FC) [11]: 6.2

SMILES: CO[C@@H]1[C@H](N(C)C(=O)c2ccccc2)C[C@H]2O[C@]1(C)n1c3ccccc3c3c4c(c5c6ccccc6n2c5c31)C(=O)NC4 [MIDOSTAURIN]
IC50 [12]: 68 nM

SMILES: Cc1cn(-c2cc(NC(=O)c3ccc(C)c(Nc4nccc(-c5cccnc5)n4)c3)cc(C(F)(F)F)c2)cn1 [NILOTINIB]
CC50 [13]: 1700 nM
CC50 [14]: 2300 nM
CC50 [15]: 3.9 µM
CC50 [16]: 5.6 µM
CC50 [17]: 4.2 µM
CC50 [18]: 5.9 µM

SMILES: CC(=O)O[C@H]1C(=O)[C@@]2(C)[C@H]([C@H](OC(=O)c3ccccc3)[C@]3(O)C[C@H](OC(=O)[C@H](O)[C@@H](NC(=O)c4ccccc4)c4ccccc4)C(C)=C1C3(C)C)[C@]1(OC(C)=O)CO[C@@H]1C[C@@H]2O [PACLITAXEL]
IC50 at 72 h [1]: < 40 µM
IC50 [3]: < 40 µM
IC50 [4]: < 40 µM

SMILES: C=CC(=O)N1CCC(Oc2cc3c(Nc4ccc(Cl)c(Cl)c4F)ncnc3cc2OC)CC1 [POZIOTINIB]
fold change (FC) [10]: 20.7
fold change (FC) [11]: 6.2

SMILES: CC(=O)O[C@@H]1C[C@H](O)[C@@]23CO[C@@H](O)[C@]1(C)[C@@H]2C[C@@H](O)[C@]1(C)[C@@H]3C(=O)[C@H](OC(C)=O)[C@@]2(C)[C@H](c3ccoc3)C[C@H]3O[C@]321 [TOOSENDANIN]
inhibition in vivo at 4 mg/kg [23]: 90%

SMILES: COc1ccc(CCN(C)CCCC(C#N)(c2ccc(OC)c(OC)c2)C(C)C)cc1OC (configuration not stated) [VERAPAMIL]
fold change (FC) [24]: 4.7

The next lines start with results.

IC50 [6]: 62 µM
SMILES: COc1cc([C@@H]2c3cc4c(cc3[C@@H](O[C@@H]3O[C@@H]5CO[C@@H](C)O[C@H]5[C@H](O)[C@H]3O)[C@H]3COC(=O)[C@H]23)OCO4)cc(OC)c1O [ETOPOSIDE]
IC5 [5]: 6.2 µM

IC50 [7]: 30 µM
SMILES: COc1ccc(CCN(C)CCCOc2ccc(S(=O)(=O)c3c(C(C)C)cn4ccccc34)cc2)cc1OC [FANTOFARONE]
Ratio IC50 [8]: 4.5

IC50 [9]: 25 nM
SMILES: COc1ccc2cc1Oc1ccc(cc1)C[C@H]1c3cc(c(OC)cc3CCN1C)Oc1c(OC)c(OC)c(OC)c3c1[C@H](C2)N(C)CC3 [HERNANDEZINE]

IC50 [19]: 9 µM
IC50 [20]: 9 µM
SMILES: COc1ccc(-c2cc(=O)c3c(OC)c(OC)c(OC)c(OC)c3o2)cc1OC [NOBILETIN]
fold change (FC) [21]: 15.92
fold change (FC) [22]: 15.92

IC50 [3]: < 40 µM
IC50 [4]: < 40 µM
SMILES: CC[C@]1(O)C[C@H]2CN(CCc3c([nH]c4ccccc34)[C@@](C(=O)OC)(c3cc4c(cc3OC)N(C=O)[C@H]3[C@@](O)(C(=O)OC)[C@H](OC(C)=O)[C@]5(CC)C=CCN6CC[C@]43[C@@H]65)C2)C1 [VINCRISTINE]
IC50 at 72 h [1]: < 40 µM
